Test results reported in patent publication US20230135894A1, “MK2 DEGRADERS AND USES THEREOF” (Kymera Therapeutics, Inc., priority 2021, published 2023).

What was measured:
MK2 [1] = molecular target: T1, MK2 (Homo sapiens, UniProt P49137); test: MK2 degradation in human THP-1 monocytic cells (MSD, 24 h); type: cell-based; set-up: endogenous in cells; key to MK2 MSD THP-1 degradation 24 h GMean External Abs DC50: A (<0.001 μM); B (0.001-0.01 μM); C (0.01-0.1 μM); D (>0.1 μM); —: “-”=not tested or inactive; settings: for Dmax: THP-1, THP-1 cells; for DC50 / MK2 MSD THP-1 degradation 24 h GMean External Abs DC50: THP-1 cells; for DC50: read-out: MK2 MSD THP-1 degradation 24 h GMean External Abs DC50
T1 sequence (P49137 whole entry): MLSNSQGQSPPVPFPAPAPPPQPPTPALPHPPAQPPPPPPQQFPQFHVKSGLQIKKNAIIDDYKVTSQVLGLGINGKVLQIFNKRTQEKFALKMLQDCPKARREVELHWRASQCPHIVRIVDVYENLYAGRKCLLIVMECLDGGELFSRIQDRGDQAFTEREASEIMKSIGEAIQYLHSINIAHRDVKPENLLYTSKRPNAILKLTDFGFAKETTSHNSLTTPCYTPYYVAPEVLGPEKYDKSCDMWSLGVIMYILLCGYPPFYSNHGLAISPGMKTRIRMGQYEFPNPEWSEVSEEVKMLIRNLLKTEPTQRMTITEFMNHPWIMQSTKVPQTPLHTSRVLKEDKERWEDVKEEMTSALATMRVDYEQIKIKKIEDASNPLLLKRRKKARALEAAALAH
Method: MK2 Degradation in Human THP-1 Monoctyic Cells
(§1) The human monocytic cancer cell line THP-1 (ATCC (TIB-202)) was cultured in 96 well plates (Corning 3894) at a density of 200,000 cells per well in 100 microlitres in complete growth medium of RPMI 1640 (Gibco) pus 10% fetal Bovine Serum (Corning) and Penicillin/Streptomycin (SolarBio) at 37 degrees Celsius and 5% CO2. A serial dilution of each compound (usually 3 to 5 fold serial dilutions up to 10 separate concentration points) was added to individual wells from a 10 millimolar stock solution, at a background concentration of 0.1% DMSO and the cells were shaken at 600 rpm for 5 minutes and then were cultured for 24 hours at 37 degrees Celsius and 5% carbon dioxide. Separately, a custom MSD (MesoScaleDiscovery, L15XA-3) plate for detection of human MK2 was prepared by coating the plate with the commercial AbCam ab247272 reagent in 1×Phosphate Buffered Saline at 40 microlitres per well and incubated at 4 degrees Celsius overnight. The next day, the MSD plate was washed with 150 microlitres of Tween buffered saline, blocked with MSD blocking buffer (3% Blocker A from MSD), and washed again.
(§2) The cell plate was centrifuged at 3,200 g for 5 minutes and the supernatant was discarded and 100 microlitres of RIPA lysis buffer (containing proteinase inhibitors, Boston BioProducts BP-115D) was added and the plate was sealed and shaken on ice for 20 minutes. The plate was centrifuged as before and 70 microlitres of sample lysate was added to the MSD plates and they were shaken at room temperature for 1 hour at 600 rpm. The MSD plate was washed 3 times as before and then the primary MK2 detection antibody (Santa Cruz sc-100393) was added at a final concentration of 1 microgram per ml at 25 microlitres per well and shaken at room temperature for 1 hour at 600 rpm.
(§3) After 3 more washes, the secondary detection antibody (SULFO-Tag anti rabbit antibody R32AB-5) was added at a final concentration of 1 microgram per ml at 25 microlitres per well and shaken at room temperature for 1 hour at 600 rpm. After 3 more washes, the 1×MSD (diluted from 5× concentrate with water) reading buffer was added at 150 microlitres per well and read on the MSD instrument Meso Sector S 600.
(§4) The inhibition/degradation curves and DC50 values were plotted and calculated using XL Fit (version v5.3.1.3) using equation 201 and a 4 parameter logistic model whereby fit=(A+((B−A)/(1+((x/C)D))) where A is the Bottom and B is the Top and C is the IC50 and D is the slope and high C is the signal for the DMSO treated cells and Low C is the signal is the signal for the lysis buffer.

MK2 [2] = molecular target: T1, MK2; test: MK2 degradation in human SW1353 cells (MSD, 24 h); type: cell-based; set-up: endogenous in cells; host or cells: SW-1353 (ATCC HTB-94); key to MK2 MSD SW1353 degradation 24 h GMean External Abs DC50: A (<0.001 μM); B (0.001-0.01 μM); C (0.01-0.1 μM); D (>0.1 μM); —: “-”=not tested or inactive; settings: for Dmax: read-out: MK2 MSD SW 1353 24 h Dmax %; for DC50: read-out: MK2 MSD SW1353 degradation 24 h GMean External Abs DC50
Method: MK2 Degradation in Human SW1353 Cells
as §1, with “chondrocyte” for “monocytic”, “SW-1353 (ATCC(HTB-94))” for “THP-1 (ATCC (TIB-202))”, “Leibovitz's L-15 Medium” for “RPMI 1640”, “Celsius.” for “Celsius and 5% CO2.”, “Celsius.” for “Celsius and 5% carbon dioxide.”
as §2, §3, §4

Row | Dmax (MK2 [1]) | DC50 (MK2 [1]) | Dmax (MK2 [2]) | DC50 (MK2 [2]) | MK2 MSD THP-1 degradation 24 h GMean External Abs DC50 (MK2 [1]) | MK2 MSD SW1353 degradation 24 h GMean External Abs DC50 (MK2 [2]) | Compound
1 | > 75% | < 1 nM | > 75% | < 1 nM |  |  | Cn1c(=O)n(C2CCC(=O)NC2=O)c2ccc(N3CCC(CN4CCN(c5ccc(-c6cc(-c7cc8c([nH]7)CCNC8=O)ccn6)cc5)CC4)CC3)cc21 (stereo not shown) [Compound I-143]
2 | < 50% | > 100 nM | < 50% | > 100 nM |  |  | Cn1c(=O)n(C2CCC(=O)NC2=O)c2cccc(C3CCN(CC4CCN(c5ccc(F)c(-c6cc(-c7cc8c([nH]7)CCNC8=O)ccn6)c5)CC4)CC3)c21 (stereo not shown) [Compound I-146]
3 | > 75% | 10 to 100 nM | > 75% | 10 to 100 nM |  |  | CN1CC2(CNC(=O)c3c2[nH]c2c3CCc3cnc(-c4ccc(N5CCN(CCCCc6cccc7c6n(C)c(=O)n7C6CCC(=O)NC6=O)CC5)cc4F)cc3-2)C1 (stereo not shown) [Compound I-154]
4 | < 50% | > 100 nM | < 50% | > 100 nM |  |  | CN1CC2(CNC(=O)c3c2[nH]c2c3CCc3cnc(-c4cc(N5CCN(CCCCc6cccc7c6n(C)c(=O)n7C6CCC(=O)NC6=O)CC5)ccc4F)cc3-2)C1 (stereo not shown) [Compound I-155]
5 | > 75% | < 1 nM | > 75% | < 1 nM |  |  | C[C@@H]1CNc2c(sc3ccc4nc(-c5cncc(N6CCN(CCCCCc7cccc8c7n(C)c(=O)n8C7CCC(=O)NC7=O)CC6)c5)ccc4c23)C(=O)N1 (stereo partly shown) [Compound I-156]
6 | > 75% | < 1 nM | > 75% | < 1 nM |  |  | C[C@@H]1CNc2c(sc3ccc4nc(-c5cncc(N6CCN(CCCc7ccc8c(c7)n(C)c(=O)n8C7CCC(=O)NC7=O)CC6)c5)ccc4c23)C(=O)N1 (stereo partly shown) [Compound I-157]
7 | > 75% | < 1 nM | > 75% | 1 to 10 nM |  |  | C[C@@H]1CNc2c(sc3ccc4nc(-c5cncc(N6CCN(CCCCCCCc7cccc8c7n(C)c(=O)n8C7CCC(=O)NC7=O)CC6)c5)ccc4c23)C(=O)N1 (stereo partly shown) [Compound I-158]
8 | > 75% | < 1 nM | > 75% | < 1 nM |  |  | C[C@@H]1CNc2c(sc3ccc4nc(-c5cncc(N6CCN(CC7CCN(c8cccc9c8n(C)c(=O)n9C8CCC(=O)NC8=O)CC7)CC6)c5)ccc4c23)C(=O)N1 (stereo partly shown) [Compound I-160]
9 | > 75% | < 1 nM | > 75% | < 1 nM |  |  | C[C@@H]1CNc2c(sc3ccc4nc(-c5cncc(N6CCN(CC7CCN(c8ccc9c(c8)n(C)c(=O)n9C8CCC(=O)NC8=O)CC7)CC6)c5)ccc4c23)C(=O)N1 (stereo partly shown) [Compound I-161]
10 | > 75% | < 1 nM | > 75% | < 1 nM |  |  | C[C@@H]1CNc2c(sc3ccc4nc(-c5cncc(C6CCN(CC7CCN(c8ccc9c(c8)n(C)c(=O)n9C8CCC(=O)NC8=O)CC7)CC6)c5)ccc4c23)C(=O)N1 (stereo partly shown) [Compound I-165]
11 | < 50% | > 100 nM | < 50% | > 100 nM |  |  | Cn1c(=O)n(C2CCC(=O)NC2=O)c2cccc(CCCCN3CC4(CCN(c5ccc6c(c5)Cn5cc(-c7ccc(F)cc7)cc5-c5nccn5-6)C4)C3)c21 (stereo not shown) [Compound I-167]
12 | < 50% | > 100 nM | < 50% | > 100 nM |  |  | Cn1c(=O)n(C2CCC(=O)NC2=O)c2ccc(CCCCCCN3CC4(CCN(c5ccc6c(c5)Cn5cc(-c7ccc(F)cc7)cc5-c5nccn5-6)C4)C3)cc21 (stereo not shown) [Compound I-168]
13 | > 75% | 1 to 10 nM | > 75% | 1 to 10 nM |  |  | C[C@@H]1CNc2c(sc3ccc4nc(-c5ccc(N6CCN(CCCCCCCCc7cccc8c7n(C)c(=O)n8C7CCC(=O)NC7=O)CC6)cc5)ccc4c23)C(=O)N1 (stereo partly shown) [Compound I-170]
14 | 50 to 75% | 1 to 10 nM | > 75% | 1 to 10 nM |  |  | C[C@@H]1CNc2c(sc3ccc4nc(-c5ccc(N6CCN(CCCCCc7cccc8c7n(C)c(=O)n8C7CCC(=O)NC7=O)CC6)cc5)ccc4c23)C(=O)N1 (stereo partly shown) [Compound I-171]
15 | > 75% | < 1 nM | > 75% | < 1 nM |  |  | C[C@@H]1CNc2c(sc3ccc4nc(-c5ccc(N6CCN(CCCc7cccc8c7n(C)c(=O)n8C7CCC(=O)NC7=O)CC6)cc5)ccc4c23)C(=O)N1 (stereo partly shown) [Compound I-172]
16 | > 75% | < 1 nM | > 75% | < 1 nM |  |  | C[C@@H]1CNc2c(sc3ccc4nc(-c5ccc(N6CCN(CCCc7ccc8c(c7)n(C)c(=O)n8C7CCC(=O)NC7=O)CC6)cc5)ccc4c23)C(=O)N1 (stereo partly shown) [Compound I-173]
17 | > 75% | < 1 nM | > 75% | < 1 nM |  |  | C[C@@H]1CNc2c(sc3ccc4nc(-c5ccc(N6CCN(CCCCCc7ccc8c(c7)n(C)c(=O)n8C7CCC(=O)NC7=O)CC6)cc5)ccc4c23)C(=O)N1 (stereo partly shown) [Compound I-174]
18 | > 75% | 1 to 10 nM | > 75% | 1 to 10 nM |  |  | C[C@@H]1CNc2c(sc3ccc4nc(-c5ccc(N6CCN(CCCCCCCCc7ccc8c(c7)n(C)c(=O)n8C7CCC(=O)NC7=O)CC6)cc5)ccc4c23)C(=O)N1 (stereo partly shown) [Compound I-175]
19 | 50 to 75% | 1 to 10 nM | > 75% | 1 to 10 nM |  |  | C[C@@H]1CNc2c(sc3ccc4nc(-c5cccc(N6CCN(CCCCCCCCc7ccc8c(c7)n(C)c(=O)n8C7CCC(=O)NC7=O)CC6)c5)ccc4c23)C(=O)N1 (stereo partly shown) [Compound I-176]
20 | > 75% | 10 to 100 nM | > 75% | 10 to 100 nM |  |  | C[C@@H]1CNc2c(sc3ccc4nc(-c5cccc(N6CCN(CCCCCCCCCCc7cccc8c7n(C)c(=O)n8C7CCC(=O)NC7=O)CC6)c5)ccc4c23)C(=O)N1 (stereo partly shown) [Compound I-177]
21 | > 75% | 10 to 100 nM | > 75% | 10 to 100 nM |  |  | C[C@@H]1CNc2c(sc3ccc4nc(-c5cccc(N6CCN(CCCCCCCCCCc7ccc8c(c7)n(C)c(=O)n8C7CCC(=O)NC7=O)CC6)c5)ccc4c23)C(=O)N1 (stereo partly shown) [Compound I-178]
22 | > 75% |  | > 75% |  | — | — | Cn1c(=O)n(C2CCC(=O)NC2=O)c2cccc(CCN3CCN(c4ccc(-c5cc(-c6cc7c([nH]6)C6(CC6)CNC7=O)ccn5)c(F)c4)CC3)c21 (stereo not shown) [Compound I-179]
23 | > 75% |  | > 75% |  |  |  | COc1cc(-c2ccc3c(ccc4sc5c(c43)NC[C@@H](C)NC5=O)n2)c(F)cc1N1CCN(CC2CCN(c3ccc4c(c3)n(C)c(=O)n4C3CCC(=O)NC3=O)CC2)CC1 (stereo partly shown) [Compound I-180]
24 | < 50% |  | < 50% |  | — | — | C[C@@H]1CNc2c(sc3ccc4nc(N5C[C@H]6C[C@@H]5CN6CC5CCN(c6cccc7c6n(C)c(=O)n7C6CCC(=O)NC6=O)CC5)ccc4c23)C(=O)N1 (stereo partly shown) [Compound I-182]
